Results as given in US5747535A, “Selective thrombin inhibitors” (priority 1995, dated 1998).
Where two headings read alike, the source gives them in different places.

What was measured:
[1] = Test 2: Pharmacokinetic test in dogs; format: in vivo, dog; conditions: for concentration at 2 min / concentration at 5 min / concentration at 10 min / concentration at 20 min / concentration at 0.5 h / concentration at 0.75 h / concentration at 1 h / concentration at 1.5 h / concentration at 2 h / concentration at 4 h / concentration at 5 h / concentration at 6 h / concentration at 3 h: 10 mg/kg; for concentration at 0.5 h: 30 min; for concentration at 0.75 h: 45 min; for concentration at 1 h: 60 min; for concentration at 1.5 h: 90 min; for concentration at 2 h: 120 min; for concentration at 4 h: 240 min; for concentration at 5 h: 300 min; for concentration at 6 h: 360 min; for concentration at 3 h: 180 min; for bioavailability: oral route
Experimental: Male rats and dogs were fasted for 24 hours and used as the experimental animals. […] Bloods were collected from the animals at given time intervals and then immediately mixed with methanol and zinc sulfate. Finally, the upper layer of the mixture was quantitatively analyzed at ultraviolet wavelength of 231 nm to measure the drug concentration in blood by HPLC.

[2] = molecular target: bovine thrombin (Bos taurus, UniProt P00735); assay: biochemical;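 further: bovine thrombin cleaving the chromogenic substrate Chromozym TH, with para-nitroaniline release tracked as absorbance change over time to give initial rates, in Tris buffer at pH 7.8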
Source text: The thrombin inhibitory effect of the compound of formula (I) according to the present invention can be identified by determination of a dissociation constant Ki represented by the following equation according to the known method described in literature [see, Methods in enzymology V. 80,p341-361;Biochemistry 27,p2144-2151 (1988)].
The dissociation constant Ki denotes the degree of dissociation of the enzyme-thrombin inhibitor complex. […] Such dissociation constant can be determined by reacting thrombin with a certain substrate which develops a color when it is hydrolyzed by the action of thrombin, and then measuring the degree of color development as a function of time by means of spectrophotometry.
Chromozym TH is hydrolyzed by thrombin to produce yellow para-nitroaniline. Accordingly, the amount of yellow para-nitroaniline thus produced can be measured as the change of absorbance in the course of time to determine the thrombin inhibitory activity of the compound according to the present invention. That is, the enzyme activity can be determined from the rate of change in absorbance and then can be directly connected with the ability of the thrombin inhibitor to inhibit the enzyme activity (see, Methods in Enzymology, V. 80,p341-361,Biochemistry 27, p2144-2151, 1988).
The ability of the compound according to the present invention to inhibit the thrombin activity was determined as described in the following.
1160 μl of 0.1M tris buffered solution (pH 7.8) containing 150 mM NaCl and 0.1% PEG 8000 (polyethylene glycol, molecular weight about 8,000) was added to a 1.5 ml cuvette. Chromozym TH was dissolved in dimethylsulfoxide(DMSO) in the concentration of 10mM and the resulting solution was diluted with the said tris buffered solution to the concentration of 0.1 mM, which was then used as the substrate solution. 225 μl of 0.1 mM substrate solution thus prepared was added to the cuvette. The inhibitor solution was prepared by dissolving the thrombin inhibitor compound according to the present invention in dimethylsulfoxide in the concentration of 10 mg/ml and then diluting the resulting solution with the said tris buffered solution to the concentration of 0.1 mg/ml, 0.01 mg/ml, 0.001 mg/ml and 0.0001 mg/ml. The resulting inhibitor solution was taken in an amount corresponding to 0 to 10 μg as the inhibitor and then diluted with tris buffered solution to make the total volume of 100 μl which was added to the cuvette.
15 μl of bovine thrombin solution dissolved in above tris buffered solution in the concentration of 0.1 mg/ml was added to the cuvette to initiate the enzyme hydrolysis reaction. The amount of para-nitroaniline produced for 2 minutes from the moment the enzyme is added was monitored by measuring the absorbance at 381 nm. The continuous spectrum of absorbance to reaction time was depicted. The same experiments were conducted for various concentration of the inhibitor to obtain the continuous spectrum.
In each spectrum, the initial velocity Vi was obtained from the slope within initial 30 seconds of the reaction time and then a graph for the reciprocal value of initial velocity(1/Vi) to the inhibitor concentration was depicted. From the graph, the primary equation satisfying the points depicted thereon was obtained and then the value Ki was calculated from the x intercept of the primary equation using the enzyme reaction equation.
The velocity constant Ks was obtained using the same solution in the same concentration as in determination of the value Ki but using the following experimental procedure.

[3] = dog, blood, iv, Dog-1, i.v. 10 mg/kg, read-out: Blood concentration
[4] = dog, blood, iv, Dog-2, i.v. 10 mg/kg, read-out: Blood concentration
[5] = dog, blood, iv, dogs, i.v. 10 mg/kg, read-out: Blood concentration, Average(+error)
[6] = dog, blood, po, Dog-1, oral 10 mg/kg, read-out: Blood concentration
[7] = dog, blood, po, Dog-2, oral 10 mg/kg, read-out: Blood concentration
[8] = dog, blood, po, dogs, oral 10 mg/kg, read-out: Blood concentration, Average(+error)

concentration at 2 min [1, 3]: 29100 ng/mL | concentration at 5 min [1, 3]: 9080 ng/mL | concentration at 10 min [1, 3]: 5940 ng/mL | concentration at 20 min [1, 3]: 3610 ng/mL | concentration at 0.5 h [1, 3]: 2430 ng/mL | concentration at 0.75 h [1, 3]: 1940 ng/mL | concentration at 1 h [1, 3]: 1470 ng/mL | concentration at 1.5 h [1, 3]: 1270 ng/mL | concentration at 2 h [1, 3]: 1090 ng/mL | concentration at 4 h [1, 3]: 544 ng/mL | concentration at 5 h [1, 3]: 315 ng/mL | concentration at 6 h [1, 3]: 317 ng/mL | concentration at 2 min [1, 4]: 36600 ng/mL | concentration at 5 min [1, 4]: 5230 ng/mL | concentration at 10 min [1, 4]: 3280 ng/mL | concentration at 20 min [1, 4]: 1800 ng/mL | concentration at 0.5 h [1, 4]: 1340 ng/mL | concentration at 0.75 h [1, 4]: 859 ng/mL | concentration at 1 h [1, 4]: 690 ng/mL | concentration at 1.5 h [1, 4]: 501 ng/mL | concentration at 2 h [1, 4]: 377 ng/mL | concentration at 4 h [1, 4]: 129 ng/mL | concentration at 5 h [1, 4]: 107 ng/mL | concentration at 6 h [1, 4]: 92 ng/mL | concentration at 2 min [1, 5]: 32900 ng/mL | concentration at 5 min [1, 5]: 7160 ng/mL | concentration at 10 min [1, 5]: 4610 ng/mL | concentration at 20 min [1, 5]: 2710 ng/mL | concentration at 0.5 h [1, 5]: 1880 ng/mL | concentration at 0.75 h [1, 5]: 1400 ng/mL | concentration at 1 h [1, 5]: 1080 ng/mL | concentration at 1.5 h [1, 5]: 885 ng/mL | concentration at 2 h [1, 5]: 733 ng/mL | concentration at 4 h [1, 5]: 337 ng/mL | concentration at 5 h [1, 5]: 211 ng/mL | concentration at 6 h [1, 5]: 204 ng/mL | concentration at 10 min [1, 6]: 1390 ng/mL | concentration at 20 min [1, 6]: 2080 ng/mL | concentration at 0.5 h [1, 6]: 1940 ng/mL | concentration at 0.75 h [1, 6]: 1890 ng/mL | concentration at 1 h [1, 6]: 2220 ng/mL | concentration at 1.5 h [1, 6]: 1270 ng/mL | concentration at 2 h [1, 6]: 774 ng/mL | concentration at 3 h [1, 6]: 663 ng/mL | concentration at 4 h [1, 6]: 812 ng/mL | concentration at 5 h [1, 6]: 51 ng/mL | concentration at 6 h [1, 6]: 118 ng/mL | concentration at 10 min [1, 7]: 15 ng/mL | concentration at 20 min [1, 7]: 17 ng/mL | concentration at 0.5 h [1, 7]: 105 ng/mL | concentration at 0.75 h [1, 7]: 558 ng/mL | concentration at 1 h [1, 7]: 1310 ng/mL | concentration at 1.5 h [1, 7]: 935 ng/mL | concentration at 2 h [1, 7]: 730 ng/mL | concentration at 3 h [1, 7]: 616 ng/mL | concentration at 4 h [1, 7]: 318 ng/mL | concentration at 5 h [1, 7]: 222 ng/mL | concentration at 6 h [1, 7]: 153 ng/mL | concentration at 10 min [1, 8]: 702 ng/mL | concentration at 20 min [1, 8]: 1050 ng/mL | concentration at 0.5 h [1, 8]: 1020 ng/mL | concentration at 0.75 h [1, 8]: 1220 ng/mL | concentration at 1 h [1, 8]: 1760 ng/mL | concentration at 1.5 h [1, 8]: 1100 ng/mL | concentration at 2 h [1, 8]: 752 ng/mL | concentration at 3 h [1, 8]: 640 ng/mL | concentration at 4 h [1, 8]: 565 ng/mL | concentration at 5 h [1, 8]: 136 ng/mL | concentration at 6 h [1, 8]: 135 ng/mL | bioavailability ([1]; dog, blood, dogs, read-out: Bioavailability): 61% | half-life ([1]; dog, blood, dogs, read-out: Elimination Half-life, Average + (error)): 1.63 h | elimination half-life in dogs compared with rats ([1]; dogs vs rats, intravenous): twice longer or more than that in rats | bioavailability ([1]; dogs): 61 (15) % | Ki [2]: 3.8 nM
SMILES: CN(C(=O)[C@H](Cc1ccc(C(=N)NN)cc1)NS(=O)(=O)c1ccc2ccccc2c1)C1CCCC1 [Example 1, (S)-N-cyclopentyl-N-methyl-3-(4-amidrazonophenyl)-2-(2-naphthylsulfonylamino)propionamide]
elimination half-life in dogs compared with argatroban in human being ([1]; dogs vs argatroban (40 minutes) in human being): twice longer or more than that of commercially available argatroban | distribution and disappearance after intravenous injection ([1]; dogs, intravenous): rapidly distributed and then slowly disappeared | pharmacokinetic characteristics compared with argatroban ([1]; oral absorption and elimination half-life): better pharmacokinetic characteristics than argatroban
